The text below walks through data of ChEMBL document CHEMBL4396945, “Hybrid molecules of scutellarein and tertramethylpyrazine's active metabolites for ischemic stroke” (Bioorg Med Chem Lett, 2019).

≈ marks a conversion by molar mass, not a printed value. Calls of active or inactive are those of the source. The calls are words filed in the database; no cut-off is given here.

Data set [1] is described as follows: Stability in pH 7.4 phosphate buffer assessed as half life. In kind it is physicochemical.
Data set [2] concerns Plasma. Put plainly: Anticoagulant activity in rabbit platelet poor plasma assessed as prothrombin time at 100 uM incubated for 3 mins by coagulometric analysis (reference value: 4.32 +/- 0.28 sec). In kind it is functional, Oryctolagus cuniculus.
In data set [3] the test system is Plasma. Put plainly: Anticoagulant activity in rabbit platelet poor plasma assessed as activated partial thromboplastin time at 100 uM incubated for 3 mins by coagulometric analysis (reference value: 19.13 +/- 0.54 sec). In kind it is functional, Oryctolagus cuniculus.
Data set [4] is described as follows: Lipophilicity, logP of compound. In kind it is physicochemical. The note with it: octanol/water.
Data set [5] deals with PC-12. Put plainly: Antioxidant activity against H2O2-induced oxidative stress in rat PC12 cells assessed as cell viability preincubated for 24 hrs followed by H2O2 stimulation further incubated for 5 hrs by MTS assay. In kind it is functional, cell-based.
Data set [6] is described as follows: Solubility in water. In kind it is physicochemical.
Data set [7] has as its system Plasma. Put plainly: Anticoagulant activity in rabbit platelet poor plasma assessed as thrombin time at 100 uM incubated for 3 mins by coagulometric analysis (reference value: 12.58 +/- 0.76 sec). In kind it is functional, Oryctolagus cuniculus.
For data set [8], the system named is Plasma. The data set can be described thus: Anticoagulant activity in rabbit platelet poor plasma assessed as fibrinogen level at 100 uM incubated for 3 mins by coagulometric analysis (reference value: 14.24 +/- 0.67 g/l). In kind it is functional, Oryctolagus cuniculus.
Data set [9] deals with Rattus norvegicus. The data set can be described thus: Neuroprotective activity in Sprague-Dawley rat model of middle cerebral artery occlusion-induced ischemia-reperfusion injury assessed as decrease in infarct area at 0.7 mmol/kg, ig for 7 days by TTC staining based assay. In kind it is functional, organism-based.
Data set [10] has as its system Rattus norvegicus. Put plainly: Neuroprotective activity in Sprague-Dawley rat middle cerebral artery occlusion-induced ischemia-reperfusion injury model assessed as reduction in dissolution of hippocampus CA1 at 0.35 to 1.40 mmol/kg, ig administered for 7 days by HE staining based assay. In kind it is functional, organism-based.
Data set [11] concerns Rattus norvegicus. Put plainly: Neuroprotective activity in Sprague-Dawley rat middle cerebral artery occlusion-induced ischemia-reperfusion injury model assessed as reduction in hyperchromic of hippocampus CA1 at 0.35 to 1.40 mmol/kg, ig administered for 7 days by HE staining based assay. In kind it is functional, organism-based.
Data set [12] has as its system Rattus norvegicus. Put plainly: Neuroprotective activity in ig dosed Sprague-Dawley rat model of middle cerebral artery occlusion-induced ischemia-reperfusion injury assessed as decrease in infarct area by TTC staining based assay. In kind it is functional, organism-based.
The subject of data set [13] is Rattus norvegicus. Put plainly: Neuroprotective activity in Sprague-Dawley rat middle cerebral artery occlusion-induced ischemia-reperfusion injury model assessed as reduction in nuclear pyknosis of hippocampus CA1 at 0.35 to 1.40 mmol/kg, ig administered for 7 days by HE staining based assay. In kind it is functional, organism-based.
Data set [14] has as its system Rattus norvegicus. Put plainly: Neuroprotective activity in Sprague-Dawley rat middle cerebral artery occlusion-induced ischemia-reperfusion injury model assessed as decrease in irregular cell morphology of hippocampus CA1 at 0.35 to 1.40 mmol/kg, ig administered for 7 days by HE staining based assay. In kind it is functional, organism-based.

Turning to `CC[C@H](C)[C@@H](NC(=O)OCc1nc(C)c(C)nc1C)C(=O)Oc1ccc(-c2cc(=O)c3c(O)c(O)c(O)cc3o2)cc1`, the half-life in [1] was 64.8 h. For the same compound, the PT in data set [2] is 8.32 s. Besides, in data set [3], the APTT turned out to be 49.28 s. Also, the logP in data set [4] is 2.83. In addition, the Activity entry in data set [5] was “Dose-dependent effect”. Further, in [6], the concentration in solution (solubility) came to 234 µg/mL (≈ 406 µM). For the same compound, in data set [7], the TT is 38.42 s. For the same compound, the Fibrinogen level in data set [8] came out at 2.54 g/L.
In the case of `Cc1nc(C)c(COC(=O)COc2ccc(-c3cc(=O)c4c(O)c(O)c(O)cc4o3)cc2)nc1C`, the half-life in [1] is 21.4 h. Further, in data set [4], the logP came out at 2.39. Also, the Activity entry in data set [5] is “Dose-dependent effect”. The compound also gave a solubility in data set [6] of 30.6 µg/mL (≈ 64 µM).
In the case of `Cc1nc(C)c(C(=O)NCC(=O)Oc2ccc(-c3cc(=O)c4c(O)c(O)c(O)cc4o3)cc2)nc1C`, the half-life in data set [1] is greater than 72 h. Besides, in data set [2], the PT is recorded as 6.39 s. Also, in data set [3], the APTT is 43.57 s. Moreover, the lipophilicity (logP) in data set [4] is 2.8. The Activity result in [5] was “Dose-dependent effect”. Further, in data set [6], the solubility is 628 µg/mL (≈ 1280 µM). For the same compound, in data set [7], the TT came out at 32.16 s. Further, the Fibrinogen level in data set [8] is listed as 3.12 g/L.
With `Cc1nc(C)c(C)nc1C` [LIGUSTRAZINE], the PT in data set [2] is 6.13 s. Moreover, the APTT in data set [3] was found to be 39.24 s. Besides, the logP in [4] came to 1.26. In addition, the Activity entry in [5] was “Dose-dependent effect”. Further, in data set [6], the solubility was 4500 µg/mL (≈ 33000 µM). For the same compound, in data set [7], the TT came out at 25.36 s. In addition, the result in data set [9] was Active. Moreover, the Fibrinogen level in data set [8] is 3.28 g/L.
In the case of `Cc1nc(C)c(COC(=O)NCC(=O)Oc2ccc(-c3cc(=O)c4c(O)c(O)c(O)cc4o3)cc2)nc1C`, in data set [1], the half-life was 14.3 h. Also, in data set [4], the logP was found to be 2.1. Moreover, the Activity result in data set [5] is “Dose-dependent effect”. The same compound came in with a solubility in [6] of 454 µg/mL (≈ 871 µM).
Consider `Cc1nc(C)c(COC(=O)N[C@H](CC(C)C)C(=O)Oc2ccc(-c3cc(=O)c4c(O)c(O)c(O)cc4o3)cc2)nc1C`, for which the half-life in data set [1] was 57.2 h. Also, in [2], the PT came out at 8.57 s. Besides, the APTT in data set [3] is given as 47.56 s. In addition, the logP in data set [4] is 1.69. The Activity result in data set [5] is “Dose-dependent effect”. Also, in data set [6], the solubility stood at 221 µg/mL (≈ 382 µM). Also, in data set [7], the TT is given as 37.91 s. For the same compound, the Fibrinogen level in data set [8] is 2.47 g/L.
With `O=c1cc(-c2ccc(O)cc2)oc2cc(O)c(O)c(O)c12` [SCUTELLAREIN], the half-life in data set [1] was 5.5 h. Also, the PT in [2] is recorded as 5.72 s. The APTT in data set [3] worked out at 34.26 s. The same compound returned a lipophilicity (logP) in data set [4] of 0.96. Moreover, the Activity result in data set [5] was “Dose-dependent effect”. The concentration in solution in data set [6] (solubility) was 14.4 µg/mL (≈ 50.3 µM). For the same compound, in data set [7], the TT is given as 18.12 s. In addition, the outcome in data set [9] was Active. In addition, the Fibrinogen level in [8] stood at 7.41 g/L.
On to `Cc1nc(C)c(C(=O)N[C@@H](C(=O)Oc2ccc(-c3cc(=O)c4c(O)c(O)c(O)cc4o3)cc2)C(C)C)nc1C`, for which the half-life in data set [1] is greater than 72 h. In addition, the logP in data set [4] came to 1.38. Besides, in data set [5], the Activity result was “Dose-dependent effect”. Also, in [6], the solubility came out at 240 µg/mL (≈ 449 µM).
For `Cc1nc(C)c(COC(=O)CCCOc2ccc(-c3cc(=O)c4c(O)c(O)c(O)cc4o3)cc2)nc1C`, in that order: 19.8 h, 1.48, “Dose-dependent effect” and 356 µg/mL (≈ 703 µM).
For `Cc1nc(C)c(C(=O)N[C@H](CC(C)C)C(=O)Oc2ccc(-c3cc(=O)c4c(O)c(O)c(O)cc4o3)cc2)nc1C`, in that order: 69.2 h, 0.91, “Dose-dependent effect” and 26 µg/mL (≈ 47.5 µM).
For `Cc1nc(C)c(C(=O)Oc2ccc(-c3cc(=O)c4c(O)c(O)c(O)cc4o3)cc2)nc1C`, in that order: 15.1 h, 3.01, “Dose-dependent effect” and 12.1 µg/mL (≈ 27.9 µM).
As to `Cc1nc(C)c(COC(=O)N[C@H](C)C(=O)Oc2ccc(-c3cc(=O)c4c(O)c(O)c(O)cc4o3)cc2)nc1C`, the half-life in data set [1] was 27.8 h. In addition, the outcome in [10], in data set [11], in data set [13] and in [14] was Active. Besides, in data set [2], the PT was found to be 7.72 s. Further, the APTT in [3] was determined as 48.21 s. Besides, the lipophilicity (logP) in data set [4] worked out at 1.53. For the same compound, the Activity result in [12] and in data set [5] was “Dose-dependent effect” each time. The amount in solution in data set [6] (solubility) came to 799 µg/mL (≈ 1490 µM). For the same compound, the TT in data set [7] is recorded as 36.25 s. Also, the Fibrinogen level in [8] worked out at 2.68 g/L.
Take `Cc1nc(C)c(COC(=O)N[C@@H](C(=O)Oc2ccc(-c3cc(=O)c4c(O)c(O)c(O)cc4o3)cc2)C(C)C)nc1C`: the half-life in data set [1] was 45.6 h. Besides, the logP in [4] came to 1.04. In addition, the Activity result in [5] was “Dose-dependent effect”. In data set [6], this compound yielded a solubility of 252 µg/mL (≈ 448 µM).
The matching figures for `Cc1nc(C)c(C(=O)N[C@@H](C(=O)N[C@@H](C)C(=O)Oc2ccc(-c3cc(=O)c4c(O)c(O)c(O)cc4o3)cc2)C(C)C)nc1C`: 51.6 h, 1.98, “Dose-dependent effect” and 856 µg/mL (≈ 1420 µM).
